Data taken from ChEMBL document CHEMBL1201862, “PubChem BioAssay data set” (2004).
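Values below derive from 48-hour exposures of cells grown in 96-well plates, with endpoints linearly interpolated between the two concentrations bracketing the appropriate inhibition level. The concentration for 50% growth inhibition is given as GI50.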 Calls of active or inactive are those of the source. Rule as the data show it: active = GI50 up to about 1.1 µM and inactive = higher.

What was measured:
Assay in all cases: inhibition of tumour cell growth, NCI panel, 48 h
NCI-H23 = system: NCI-H23
NCI-H522 = system: NCI-H522
BT-549 = system: BT-549
NCI-H460 = system: NCI-H460
SR = system: SR
SF-268 = system: SF-268
Hs-578T = system: Hs-578T
U-251 = system: U-251
HT-29 = system: HT-29
MDA-MB-231 = system: MDA-MB-231
IGROV-1 = system: IGROV-1
LOX IMVI = system: LOX IMVI
T47D = system: T47D
OVCAR-4 = system: OVCAR-4
HL-60 = system: HL-60
KM12 = system: KM12
RPMI-8226 = system: RPMI-8226
HCT-15 = system: HCT-15
UO-31 = system: UO-31

Row | Structure (SMILES) | GI50 (NCI-H23) | GI50 (NCI-H522) | GI50 (BT-549) | GI50 (NCI-H460) | GI50 (SR) | GI50 (SF-268) | GI50 (Hs-578T) | GI50 (U-251) | GI50 (HT-29) | GI50 (MDA-MB-231) | GI50 (IGROV-1) | GI50 (LOX IMVI) | GI50 (T47D) | GI50 (OVCAR-4) | GI50 (HL-60) | GI50 (KM12) | GI50 (RPMI-8226) | GI50 (HCT-15) [µM] | GI50 (UO-31)
1 | CC(C)C(=O)CP(=O)(O)O | > 100 µM (inactive) | > 100 µM (inactive) | > 100 µM (inactive) | > 100 µM (inactive) | > 100 µM (inactive) | > 100 µM (inactive) | > 100 µM (inactive) | > 100 µM (inactive) | > 100 µM (inactive) | > 100 µM (inactive) | > 100 µM (inactive) | > 100 µM (inactive) | > 100 µM (inactive) | > 100 µM (inactive) | > 100 µM (inactive) | > 100 µM (inactive) | > 100 µM (inactive) | > 100 | –
2 | CCC12CCCN(Cc3ccccc3)C1c1c([nH]c3ccccc13)C(C(=O)OC)C2 (stereo unspecified) | 8.38 µM (inactive) | > 10 µM (inactive) | > 10 µM (inactive) | – | 7.64 µM (inactive) | > 10 µM (inactive) | > 10 µM (inactive) | > 10 µM (inactive) | 6.87 µM (inactive) | > 10 µM (inactive) | > 10 µM (inactive) | > 10 µM (inactive) | 5.75 µM (inactive) | > 10 µM (inactive) | 7.83 µM (inactive) | > 10 µM (inactive) | > 10 µM (inactive) | > 10 | –
3 | NCC(=O)N1CCN(c2nc(N3CCCC3)c3nc(Cl)c(NCc4ccccc4)nc3n2)CC1 | 1.95 µM (inactive) | 1.78 µM (inactive) | 2.09 µM (inactive) | 1.85 µM (inactive) | 1.56 µM (inactive) | 2.07 µM (inactive) | 2.12 µM (inactive) | 1.71 µM (inactive) | 1.91 µM (inactive) | 1.85 µM (inactive) | 1.63 µM (inactive) | 1.78 µM (inactive) | 1.42 µM (inactive) | 2.15 µM (inactive) | 1.81 µM (inactive) | 2.04 µM (inactive) | – | 1.97 | 1.66 µM (inactive)
4 | COC12C=CC(CC1)C(C)(C)C2=O (stereo unspecified) | > 100 µM (inactive) | > 100 µM (inactive) | > 100 µM (inactive) | > 100 µM (inactive) | > 100 µM (inactive) | > 100 µM (inactive) | > 100 µM (inactive) | > 100 µM (inactive) | > 100 µM (inactive) | > 100 µM (inactive) | > 100 µM (inactive) | – | > 100 µM (inactive) | > 100 µM (inactive) | > 100 µM (inactive) | > 100 µM (inactive) | > 100 µM (inactive) | > 100 | > 100 µM (inactive)
5 | N#Cc1c(Nc2nc3ccccc3s2)c2ccccc2n2c1nc1ccccc12 | > 100 µM (inactive) | > 100 µM (inactive) | > 100 µM (inactive) | > 100 µM (inactive) | > 100 µM (inactive) | > 100 µM (inactive) | 45.5 µM (inactive) | 90.8 µM (inactive) | > 100 µM (inactive) | 48.4 µM (inactive) | > 100 µM (inactive) | > 100 µM (inactive) | > 100 µM (inactive) | > 100 µM (inactive) | > 100 µM (inactive) | > 100 µM (inactive) | > 100 µM (inactive) | > 100 | > 100 µM (inactive)
6 | C=CCc1cc(C(Cc2ccccc2)NC(C)C)cc(OCc2ccccc2)c1OCc1ccccc1 (stereo unspecified) | 18.8 µM (inactive) | 15.3 µM (inactive) | 17.3 µM (inactive) | 15 µM (inactive) | 12.2 µM (inactive) | 16 µM (inactive) | 18 µM (inactive) | 14.3 µM (inactive) | 15.1 µM (inactive) | 15 µM (inactive) | 15.8 µM (inactive) | 14.8 µM (inactive) | 14.5 µM (inactive) | 17.4 µM (inactive) | 14.5 µM (inactive) | 20.7 µM (inactive) | 12.9 µM (inactive) | 16.3 | 10.1 µM (inactive)
7 | CC(=O)O[C@H]1C(=O)[C@@]2(C)[C@H]([C@H](OC(=O)c3ccccc3)[C@]3(O)C[C@H](OC(=O)[C@H](O)[C@@H](NC(=O)c4ccoc4)c4ccccc4)C(C)=C1C3(C)C)[C@]1(OC(C)=O)CO[C@@H]1C[C@@H]2O | 0.0261 µM (active) | < 0.01 µM (active) | < 0.01 µM (active) | 0.023 µM (active) | 0.0355 µM (active) | 0.0325 µM (active) | 0.0246 µM (active) | 0.00791 µM (active) | < 0.01 µM (active) | 0.0434 µM (active) | 0.016 µM (active) | 0.0215 µM (active) | 0.0307 µM (active) | 31.1 µM (inactive) | 0.0136 µM (active) | < 0.01 µM (active) | 0.00871 µM (active) | 0.757 | 3.39 µM (inactive)
8 | N#Cc1c(-c2ccccc2)[nH]c2ccc(Cl)cc2c1=O | 92.5 µM (inactive) | 26.4 µM (inactive) | 22.5 µM (inactive) | > 100 µM (inactive) | > 100 µM (inactive) | 36.1 µM (inactive) | 34.8 µM (inactive) | 28.2 µM (inactive) | > 100 µM (inactive) | 21.7 µM (inactive) | 63.1 µM (inactive) | > 100 µM (inactive) | > 100 µM (inactive) | > 100 µM (inactive) | > 100 µM (inactive) | > 100 µM (inactive) | > 100 µM (inactive) | > 100 | 22.4 µM (inactive)
9 | O=C1c2ccc(O)cc2OC(c2cc(O)c(O)c(O)c2)C1O (stereo unspecified) [DIHYDROBINETIN] | 34.5 µM (inactive) | 24.8 µM (inactive) | 20.5 µM (inactive) | 19.8 µM (inactive) | 20.5 µM (inactive) | 34.1 µM (inactive) | 70.1 µM (inactive) | 22.5 µM (inactive) | 23.4 µM (inactive) | 21.1 µM (inactive) | 18 µM (inactive) | 19.1 µM (inactive) | 37.8 µM (inactive) | 37.9 µM (inactive) | 19.9 µM (inactive) | 26.7 µM (inactive) | 17.8 µM (inactive) | 33.7 | 67.8 µM (inactive)
10 | CCOC(=O)C1(C(=O)OCC)[C@@H](c2ccccc2)C2=NO[C@@H]3CCC[C@H]1[C@H]23 | 42.5 µM (inactive) | 42.1 µM (inactive) | 42.7 µM (inactive) | 57.7 µM (inactive) | 40.7 µM (inactive) | > 100 µM (inactive) | > 100 µM (inactive) | 47.5 µM (inactive) | 45.4 µM (inactive) | > 100 µM (inactive) | 50.4 µM (inactive) | 81.1 µM (inactive) | 20.8 µM (inactive) | 43 µM (inactive) | 24.3 µM (inactive) | 28.9 µM (inactive) | 23.5 µM (inactive) | 56 | 53.3 µM (inactive)
11 | Cc1cc(O)c2c(c1O)C(=O)c1c(O)ccc(O)c1C2=O [Cynodontin] | > 100 µM (inactive) | > 100 µM (inactive) | > 100 µM (inactive) | > 100 µM (inactive) | > 100 µM (inactive) | > 100 µM (inactive) | > 100 µM (inactive) | > 100 µM (inactive) | > 100 µM (inactive) | > 100 µM (inactive) | > 100 µM (inactive) | > 100 µM (inactive) | > 100 µM (inactive) | > 100 µM (inactive) | > 100 µM (inactive) | > 100 µM (inactive) | > 100 µM (inactive) | > 100 | –
12 | N=C(N)NS(=O)(=O)c1ccc(NC(=O)c2cccc3c(NNc4ccc(S(N)(=O)=O)cc4)c4ccccc4nc23)cc1 | > 100 µM (inactive) | 41.1 µM (inactive) | 74.5 µM (inactive) | 83.4 µM (inactive) | 35 µM (inactive) | 73.5 µM (inactive) | 59.4 µM (inactive) | 44.2 µM (inactive) | 47 µM (inactive) | 27.5 µM (inactive) | 55.5 µM (inactive) | 20.4 µM (inactive) | 18.7 µM (inactive) | > 100 µM (inactive) | 30.6 µM (inactive) | 50.7 µM (inactive) | 39.6 µM (inactive) | 38.9 | > 100 µM (inactive)
13 | O=C(O)C(Cc1ccc2c(c1)CCC2)(Cc1ccc2c(c1)CCC2)C(=O)O | > 100 µM (inactive) | > 100 µM (inactive) | > 100 µM (inactive) | > 100 µM (inactive) | > 100 µM (inactive) | > 100 µM (inactive) | > 100 µM (inactive) | > 100 µM (inactive) | > 100 µM (inactive) | 29.2 µM (inactive) | > 100 µM (inactive) | > 100 µM (inactive) | > 100 µM (inactive) | > 100 µM (inactive) | > 100 µM (inactive) | > 100 µM (inactive) | > 100 µM (inactive) | > 100 | > 100 µM (inactive)
14 | O=C(Nc1nncs1)NS(=O)(=O)n1cnc2ccccc21 | > 100 µM (inactive) | > 100 µM (inactive) | > 100 µM (inactive) | > 100 µM (inactive) | > 100 µM (inactive) | > 100 µM (inactive) | > 100 µM (inactive) | > 100 µM (inactive) | > 100 µM (inactive) | > 100 µM (inactive) | > 100 µM (inactive) | – | > 100 µM (inactive) | > 100 µM (inactive) | > 100 µM (inactive) | > 100 µM (inactive) | > 100 µM (inactive) | > 100 | –
15 | CN(C)CCNS(=O)(=O)c1ccc(N)cc1 | > 100 µM (inactive) | > 100 µM (inactive) | > 100 µM (inactive) | > 100 µM (inactive) | > 100 µM (inactive) | > 100 µM (inactive) | > 100 µM (inactive) | > 100 µM (inactive) | > 100 µM (inactive) | > 100 µM (inactive) | > 100 µM (inactive) | – | > 100 µM (inactive) | > 100 µM (inactive) | > 100 µM (inactive) | > 100 µM (inactive) | > 100 µM (inactive) | > 100 | > 100 µM (inactive)
